Patent US20230083012A1, “DIHYDROPYRIMIDINE DERIVATIVES AND USES THEREOF IN THE TREATMENT OF HBV INFECTION OR OF HBV-INDUCED DISEASES” (priority 2019, published 2023)
Like-named read-outs stand apart in the source and are kept apart here.

Key:
[1] = tested on: HBV; test: Anti-HBV activity in HepG2.2.15 cells (HBV DNA in culture medium by qPCR); type: cell-based; conditions: Hepatitis B virus, HepG2.2.15, 144 h
Description: Example 2: Anti-Viral Assay in HepG2.2.15 Cells
(§1) HepG2.2.15 (the HepG2.2.15 cell line can be produced by transfection of the HepG2 cell line as described in Sells, Chen, and Acs 1987 (Proc. Natl. Acad. Sci. USA 84: 1005-1009), and the HepG2 cell line is available from ATCC® under number HIB-8065™)
(§2) HepG2.2.15 cells were plated into 96-well plate in 2% FBS culture medium at the density of 40,000 cells/well and 5,000 cells/well for HBV inhibitory activity and cytotoxicity determination, respectively. After incubation at 37° C., 5% CO2 overnight, cells were treated with medium containing compounds for 6 days with medium and compounds refreshed after 3 days of treatment. Each compound was tested in a 1:3 serial dilutions at 8 different concentrations in triplicate. The highest concentration of the compounds was 10 uM or 1 uM for anti-HBV activity assay and 100 uM for cytotoxicity determination.
The change of HBV DNA level induced by the compounds was assessed by quantitative real-time polymerase chain reaction (qPCR). Briefly, the HBV DNA in the culture medium was extracted using QIAamp 96 DNA Blood Kit according to the manual and then quantified by real-time PCR assay using the primers and probe in the table 2 below.
(§3) 2) DATA Analysis EC50 and CC50 values are calculated by the GRAPTIPAD PRISM software.

[2] = Cytotoxicity determination in HepG2.2.15 cells (CCK-8 cell viability); type: cell-based; conditions: human, 6 days treatment, CCK-8 assay, highest concentration 100 uM
Description: as §1, §2
Cell viability was determined by CCK-8 assay. After 6 days of compounds treatment, 20 μl CCK-8 reagents were added to each well of cytotoxicity assay plates. Cell plates were incubated at 37° C., 5% CO2 for 2.5 h. The absorbance at 450 nm wavelength and the absorbance at 630 nm wavelength as reference was measured.
as §3

[3] = HepG2.2.15 cells, 6 days treatment, HBV DNA in culture medium quantified by real-time PCR, read-out: EC50

| Compound | EC50 [1, 3] | CC50 at 6 days [2] | EC50 [1] |
| --- | --- | --- | --- |
| COC(=O)C1=C(CN2CC(F)(F)[C@@H]3C(=O)N(CC(C)(C)C(=O)O)C[C@@H]32)NC(c2ncoc2C)=N[C@H]1c1ccc(F)cc1Cl (single isomer, unassigned) [Compound 41, 3-((cis)-1-((6-(2-chloro-4-fluorophenyl)-5-(methoxycarbonyl)-2-(5-methyloxazol-4-yl)-3,6-dihydropyrimidin-4-yl)methyl)-3,3-difluoro-4-oxohexahydropyrrolo[3,4-b]pyrrol-5(1H)-yl)-2,2-dimethylpropanoic acid] | 93.8 nM | > 100 µM | – |
| COC(=O)C1=C(CN2CC(F)(F)[C@@H]3C(=O)N(CC(C)(C)C(=O)O)C[C@@H]32)NC(c2nccs2)=N[C@H]1c1ccc(F)c(F)c1Cl (single isomer, unassigned) [Compound 42, 3-((cis)-1-((6-(2-Chloro-3,4-difluorophenyl)-5-(methoxycarbonyl)-2-(thiazol-2-yl)-3,6-dihydropyrimidin-4-yl)methyl)-3,3-difluoro-4-oxohexahydropyrrolo[3,4-b]pyrrol-5(1H)-yl)-2,2-dimethylpropanoic acid] | 13.8 nM | > 100 µM | – |
| CCOC(=O)C1=C(CN2CC(F)(F)[C@@H]3C(=O)N(CC(C)(C)C(=O)O)C[C@@H]32)NC(c2nccs2)=N[C@H]1c1cccc(F)c1Cl (single isomer, unassigned) [Compound 43, 3-((cis)-1-((6-(2-chloro-3-fluorophenyl)-5-(ethoxycarbonyl)-2-(thiazol-2-yl)-3,6-dihydropyrimidin-4-yl)methyl)-3,3-difluoro-4-oxohexahydropyrrolo[3,4-b]pyrrol-5(1H)-yl)-2,2-dimethylpropanoic acid] | 4.1 nM | 50.2 µM | – |
| CCOC(=O)C1=C(CN2CC(F)(F)[C@@H]3C(=O)N([C@H]4CC[C@@H](C(=O)O)CC4)C[C@@H]32)NC(c2nccs2)=N[C@H]1c1cccc(F)c1C (single isomer, unassigned) [Compound 44A] | 56.7 nM | > 100 µM | – |
| CCOC(=O)C1=C(CN2CC(F)(F)[C@@H]3CN(S(=O)(=O)CC(C)(C)C(=O)O)C[C@@H]32)NC(c2nccs2)=N[C@H]1c1cccc(F)c1C (single isomer, unassigned) [Compound 46] | 39.4 nM | 20.9 µM | – |
| CCOC(=O)C1=C(CN2CC(F)(F)[C@@H]3CN(CC4(CC(=O)O)CC4)C[C@@H]32)NC(c2nccs2)=N[C@H]1c1cccc(F)c1C (single isomer, unassigned) [Compound 48] | 105 nM | > 100 µM | – |
| CCOC(=O)C1=C(CN2CC[C@@]3(F)C(=O)N(CCC(C)(C)C(=O)O)C[C@@H]23)NC(c2nccs2)=N[C@H]1c1cccc(F)c1C (single isomer, unassigned) [Compound 50A] | 40.8 nM | 49.3 µM | – |
| CCOC(=O)C1=C(CN2CC(F)(F)[C@@H]3CN(c4ncc(C(=O)O)cn4)C[C@@H]32)NC(c2nccs2)=N[C@H]1c1cccc(F)c1C (single isomer, unassigned) [Compound 54] | 49.2 nM | 55.2 µM | – |
| CCOC(=O)C1=C(CN2CC(F)(F)[C@@H]3CN(C(=O)[C@H]4C[C@@H](C(=O)O)C4)C[C@@H]32)NC(c2nccs2)=N[C@H]1c1cccc(F)c1C (single isomer, unassigned) [Compound 56B] | 79.2 nM | > 100 µM | – |
| CCOC(=O)C1=C(CN2CC(F)(F)[C@@H]3CN(C(=O)[C@@H]4C[C@@H]4C(=O)O)C[C@@H]32)NC(c2nccs2)=N[C@H]1c1cccc(F)c1C (single isomer, unassigned) [Compound 57B] | 92.2 nM | 51.2 µM | – |
| CCOC(=O)C1=C(CN2CC(F)(F)[C@@H]3CN(C(=O)OC(C)(C)C(=O)O)C[C@@H]32)NC(c2nccs2)=N[C@H]1c1cccc(F)c1C (single isomer, unassigned) [Compound 60] | 49.6 nM | 29.4 µM | – |
| CCOC(=O)C1=C(CN2CC(F)(F)[C@H]3[C@@H]2CCN3C(C)=O)NC(c2nccs2)=N[C@H]1c1cccc(F)c1C (single isomer, unassigned) [Compound 61] | 37.3 nM | 21.5 µM | – |
| CCOC(=O)C1=C(CN2CC(F)(F)[C@H]3[C@@H]2CCN3S(C)(=O)=O)NC(c2nccs2)=N[C@H]1c1cccc(F)c1C (single isomer, unassigned) [Compound 62] | 12.7 nM | 17.3 µM | – |
| CCOC(=O)C1=C(CN2CC(F)(F)[C@H]3[C@@H]2CCN3C(=O)NC(N)=O)NC(c2nccs2)=N[C@H]1c1cccc(F)c1C (single isomer, unassigned) [Compound 63] | 11.8 nM | 25.2 µM | – |
| CCOC(=O)C1=C(CN2CC(F)(F)[C@@H]3[C@H]2CN(C(=O)[C@H]2CC2(F)F)N3CCC(C)(C)C(=O)O)NC(c2nccs2)=N[C@H]1c1cccc(F)c1C (single isomer, unassigned) [Compound 72A] | 55 nM | 14.5 µM | – |
| CCOC(=O)C1=C(CN2CC(F)(F)[C@@H]3[C@H]2CN(C(=O)C2CC2)N3CCC(C)(C)C(=O)O)NC(c2nccs2)=N[C@H]1c1cccc(F)c1C (single isomer, unassigned) [Compound 73] | 17 nM | 26 µM | – |
| CCOC(=O)C1=C(CN2CC(F)(F)[C@@H]3[C@H]2CN(C(=O)C(C)C)N3CCC(C)(C)C(=O)O)NC(c2nccs2)=N[C@H]1c1cccc(F)c1C (single isomer, unassigned) [Compound 74] | 38 nM | 16.6 µM | – |
| CCOC(=O)C1=C(CN2CC(F)(F)[C@@H]3[C@H]2CN(C(=O)C(F)F)N3CCC(C)(C)C(=O)O)NC(c2nccs2)=N[C@H]1c1cccc(F)c1C (single isomer, unassigned) [Compound 75] | – | 22.6 µM | 40 nM |
| CCOC(=O)C1=C(CN2CC(F)(F)[C@@H]3[C@H]2CN(C(N)=O)N3CCC(C)(C)C(=O)O)NC(c2nccs2)=N[C@H]1c1cccc(F)c1C (single isomer, unassigned) [Compound 76A] | 11 nM | 28.2 µM | – |
| CCOC(=O)C1=C(CN2CC(F)(F)[C@H]3[C@@H]2CN(C(C)=O)N3CCC(C)(C)C(=O)O)NC(c2nccs2)=N[C@H]1c1ccc(F)c(F)c1Cl (single isomer, unassigned) [Compound 77B, 4-((cis)-2-acetyl-4-((6-(2-chloro-3,4-difluorophenyl)-5-(ethoxycarbonyl)-2-(thiazol-2-yl)-3,6-dihydropyrimidin-4-yl)methyl)-6,6-difluorohexahydropyrrolo[3,2-c]pyrazol-1(2H)-yl)-2,2-dimethylbutanoic acid] | 15 nM | 17.5 µM | – |
| COC(=O)C1=C(CN2CC(F)(F)[C@@H]3[C@H]2CN(C(C)=O)N3CCC(C)(C)C(=O)O)NC(c2nccs2)=N[C@H]1c1ccc(F)c(F)c1Cl (single isomer, unassigned) [Compound 79A, 4-((cis)-2-acetyl-4-((6-(2-chloro-3,4-difluorophenyl)-5-(methoxycarbonyl)-2-(thiazol-2-yl)-3,6-dihydropyrimidin-4-yl)methyl)-6,6-difluorohexahydropyrrolo[3,2-c]pyrazol-1(2H)-yl)-2,2-dimethylbutanoic acid] | 40 nM | > 50 µM | – |
| COC(=O)C1=C(CN2CC(F)(F)[C@H]3[C@@H]2CN(C(C)=O)N3CCC(C)(C)C(=O)O)NC(c2nccs2)=N[C@H]1c1ccc(F)c(F)c1Cl (single isomer, unassigned) [Compound 79B, 4-((cis)-2-acetyl-4-((6-(2-chloro-3,4-difluorophenyl)-5-(methoxycarbonyl)-2-(thiazol-2-yl)-3,6-dihydropyrimidin-4-yl)methyl)-6,6-difluorohexahydropyrrolo[3,2-c]pyrazol-1(2H)-yl)-2,2-dimethylbutanoic acid] | 27 nM | 54.9 µM | – |
| CCOC(=O)C1=C(CN2CC(F)(F)[C@H]3[C@@H]2CN(C(C)=O)N3CCC(C)(C)C(=O)O)NC(c2nccs2)=N[C@@H]1c1ccc(F)c(F)c1C (single isomer, unassigned) [Compound 80B, 4-((cis)-2-acetyl-4-((6-(3,4-difluoro-2-methylphenyl)-5-(ethoxycarbonyl)-2-(thiazol-2-yl)-3,6-dihydropyrimidin-4-yl)methyl)-6,6-difluorohexahydropyrrolo[3,2-c]pyrazol-1(2H)-yl)-2,2-dimethylbutanoic acid] | 8 nM | 24.1 µM | – |
| CCOC(=O)C1=C(CN2CC(F)(F)[C@H]3[C@@H]2CN(C(C)=O)N3CCC(C)(C)C(=O)O)NC(c2nccs2)=N[C@H]1c1cccc(F)c1Cl (single isomer, unassigned) [Compound 81B, 4-((cis)-2-acetyl-4-((6-(2-chloro-3-fluorophenyl)-5-(ethoxycarbonyl)-2-(thiazol-2-yl)-3,6-dihydropyrimidin-4-yl)methyl)-6,6-difluorohexahydropyrrolo[3,2-c]pyrazol-1(2H)-yl)-2,2-dimethylbutanoic acid] | 13 nM | 35.9 µM | – |
